Laboratory results as given in the supplement of paper PMC10307832.

Tests used:
Assay in all cases: relative viability (nuclei count vs DMSO), 5 days (fraction); higher = more cells survive
A549 = tested on: A549
Procedure, shortened: (§1)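 Lung cancer cell lines in 1536-well plates got either a single drug or a fixed anchor-drug dose together with five library-drug doses (not always all listed) in √10 steps, by pin tool, on the day after seeding. Nuclei were counted after 5 days, and relative viability is the treated-to-vehicle ratio of nuclei counts. Values are medians of duplicate plates.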

Calu-6 = tested on: Calu-6
Procedure, shortened: as §1

EBC-1 = tested on: EBC-1
Procedure, shortened: as §1

HCC-78 = tested on: HCC-78
Procedure, shortened: as §1

IA-LM = tested on: IA-LM
Procedure, shortened: as §1

NCI-H1299 = tested on: NCI-H1299
Procedure, shortened: as §1

NCI-H1703 = tested on: NCI-H1703
Procedure, shortened: as §1

NCI-H2009 = tested on: NCI-H2009
Procedure, shortened: as §1

NCI-H460 = tested on: NCI-H460
Procedure, shortened: as §1

NCI-H661 = tested on: NCI-H661
Procedure, shortened: as §1

For `CCN(CC)CCCCNc1ncc2cc(-c3cc(OC)cc(OC)c3)c(NC(=O)NC(C)(C)C)nc2n1` + CS(=O)(=O)CCNCc1ccc(-c2ccc3ncnc(Nc4ccc(OCc5cccc(F)c5)c(Cl)c4)c3c2)o1 [Lapatinib] (partner 2 µM), the relative viability (A549; first compound 0.01 µM) was 1.11, the relative viability (A549; first compound 0.03162 µM) was 0.957 and the relative viability (A549; first compound 0.1 µM) was 1.45. It also gave a relative viability (A549; first compound 0.3162 µM) of 0.972, a relative viability (A549; first compound 1 µM) of 0.875 and a relative viability (Calu-6; first compound 0.01 µM) of 1.09. The relative viability (Calu-6; first compound 0.03162 µM) was 1.15, the relative viability (Calu-6; first compound 0.1 µM) was 1.31 and the relative viability (Calu-6; first compound 0.3162 µM) was 1.24. It also gave a relative viability (Calu-6; first compound 1 µM) of 1.02, a relative viability (EBC-1; first compound 0.01 µM) of 0.228 and a relative viability (EBC-1; first compound 0.03162 µM) of 0.231. For the same compound, the relative viability (EBC-1; first compound 0.1 µM) was 0.209, the relative viability (EBC-1; first compound 0.3162 µM) was 0.217 and the relative viability (EBC-1; first compound 1 µM) was 0.208. For the same compound, the relative viability (HCC-78; first compound 0.03162 µM) was 1.09, the relative viability (HCC-78; first compound 0.1 µM) was 1.09 and the relative viability (HCC-78; first compound 0.3162 µM) was 0.87. It also gave a relative viability (HCC-78; first compound 1 µM) of 0.748, a relative viability (IA-LM; first compound 0.01 µM) of 0.805 and a relative viability (IA-LM; first compound 0.03162 µM) of 0.644. It also gave a relative viability (IA-LM; first compound 0.1 µM) of 0.917, a relative viability (IA-LM; first compound 0.3162 µM) of 0.793 and a relative viability (IA-LM; first compound 1 µM) of 1.05. It also gave a relative viability (NCI-H1299; first compound 0.01 µM) of 1, a relative viability (NCI-H1299; first compound 0.03162 µM) of 0.977 and a relative viability (NCI-H1299; first compound 0.1 µM) of 0.995. It also gave a relative viability (NCI-H1299; first compound 0.3162 µM) of 1.05, a relative viability (NCI-H1299; first compound 1 µM) of 0.912 and a relative viability (NCI-H1703; first compound 0.01 µM) of 0.912. For the same compound, the relative viability (NCI-H1703; first compound 0.03162 µM) was 0.819, the relative viability (NCI-H1703; first compound 0.1 µM) was 1.3 and the relative viability (NCI-H1703; first compound 0.3162 µM) was 1.35. It also gave a relative viability (NCI-H1703; first compound 1 µM) of 0.774, a relative viability (NCI-H2009; first compound 0.01 µM) of 0.898 and a relative viability (NCI-H2009; first compound 0.03162 µM) of 0.971. It also gave a relative viability (NCI-H2009; first compound 0.1 µM) of 0.956, a relative viability (NCI-H2009; first compound 0.3162 µM) of 0.932 and a relative viability (NCI-H2009; first compound 1 µM) of 1.43. For the same compound, the relative viability (NCI-H460; first compound 0.01 µM) was 1.27, the relative viability (NCI-H460; first compound 0.03162 µM) was 1.18 and the relative viability (NCI-H460; first compound 0.1 µM) was 0.985. The relative viability (NCI-H460; first compound 0.3162 µM) was 1.53, the relative viability (NCI-H460; first compound 1 µM) was 0.532 and the relative viability (NCI-H661; first compound 0.01 µM) was 0.569. For the same compound, the relative viability (NCI-H661; first compound 0.03162 µM) was 0.457, the relative viability (NCI-H661; first compound 0.1 µM) was 0.432 and the relative viability (NCI-H661; first compound 0.3162 µM) was 0.502. The relative viability (NCI-H661; first compound 1 µM) was 0.493.
Compound `CCN(CC)CCCCNc1ncc2cc(-c3cc(OC)cc(OC)c3)c(NC(=O)NC(C)(C)C)nc2n1` + CS(=O)(=O)N1CCN(Cc2cc3nc(-c4cccc5[nH]ncc45)nc(N4CCOCC4)c3s2)CC1 [Pictilisib] (partner 1 µM) has a relative viability (A549; first compound 0.01 µM) of 0.52, a relative viability (A549; first compound 0.03162 µM) of 0.543 and a relative viability (A549; first compound 0.1 µM) of 0.562. The relative viability (A549; first compound 0.3162 µM) was 0.621, the relative viability (A549; first compound 1 µM) was 0.41 and the relative viability (Calu-6; first compound 0.01 µM) was 1.01. The relative viability (Calu-6; first compound 0.03162 µM) was 0.994, the relative viability (Calu-6; first compound 0.1 µM) was 1.12 and the relative viability (Calu-6; first compound 0.3162 µM) was 1.09. For the same compound, the relative viability (Calu-6; first compound 1 µM) was 0.87, the relative viability (EBC-1; first compound 0.01 µM) was 0.369 and the relative viability (EBC-1; first compound 0.03162 µM) was 0.32. For the same compound, the relative viability (EBC-1; first compound 0.1 µM) was 0.342, the relative viability (EBC-1; first compound 0.3162 µM) was 0.37 and the relative viability (EBC-1; first compound 1 µM) was 0.293. For the same compound, the relative viability (HCC-78; first compound 0.03162 µM) was 0.189, the relative viability (HCC-78; first compound 0.1 µM) was 0.224 and the relative viability (HCC-78; first compound 0.3162 µM) was 0.218. The relative viability (HCC-78; first compound 1 µM) was 0.185, the relative viability (IA-LM; first compound 0.01 µM) was 0.329 and the relative viability (IA-LM; first compound 0.03162 µM) was 0.329. It also gave a relative viability (IA-LM; first compound 0.1 µM) of 0.342, a relative viability (IA-LM; first compound 0.3162 µM) of 0.333 and a relative viability (IA-LM; first compound 1 µM) of 0.265. For the same compound, the relative viability (NCI-H1299; first compound 0.01 µM) was 0.883, the relative viability (NCI-H1299; first compound 0.03162 µM) was 0.845 and the relative viability (NCI-H1299; first compound 0.1 µM) was 0.851. The relative viability (NCI-H1299; first compound 0.3162 µM) was 0.96, the relative viability (NCI-H1299; first compound 1 µM) was 0.775 and the relative viability (NCI-H1703; first compound 0.01 µM) was 0.233. The relative viability (NCI-H1703; first compound 0.03162 µM) was 0.222, the relative viability (NCI-H1703; first compound 0.1 µM) was 0.244 and the relative viability (NCI-H1703; first compound 0.3162 µM) was 0.213. For the same compound, the relative viability (NCI-H1703; first compound 1 µM) was 0.252, the relative viability (NCI-H2009; first compound 0.01 µM) was 0.727 and the relative viability (NCI-H2009; first compound 0.03162 µM) was 0.79. It also gave a relative viability (NCI-H2009; first compound 0.1 µM) of 0.824, a relative viability (NCI-H2009; first compound 0.3162 µM) of 0.965 and a relative viability (NCI-H2009; first compound 1 µM) of 0.815. It also gave a relative viability (NCI-H460; first compound 0.01 µM) of 0.311, a relative viability (NCI-H460; first compound 0.03162 µM) of 0.258 and a relative viability (NCI-H460; first compound 0.1 µM) of 0.417. The relative viability (NCI-H460; first compound 0.3162 µM) was 0.382, the relative viability (NCI-H460; first compound 1 µM) was 0.395 and the relative viability (NCI-H661; first compound 0.01 µM) was 0.403. It also gave a relative viability (NCI-H661; first compound 0.03162 µM) of 0.313, a relative viability (NCI-H661; first compound 0.1 µM) of 0.434 and a relative viability (NCI-H661; first compound 0.3162 µM) of 0.445. For the same compound, the relative viability (NCI-H661; first compound 1 µM) was 0.344.
Compound `O=c1cc(-c2cccc3c2Sc2ccccc2S3)oc(N2CCOCC2)c1` + CS(=O)(=O)N1CCN(Cc2cc3nc(-c4cccc5[nH]ncc45)nc(N4CCOCC4)c3s2)CC1 [Pictilisib] (partner 1 µM) has a relative viability (A549; first compound 0.08 µM) of 0.542, a relative viability (A549; first compound 0.253 µM) of 0.852 and a relative viability (A549; first compound 0.8 µM) of 0.681. The relative viability (A549; first compound 2.53 µM) was 0.481, the relative viability (A549; first compound 8 µM) was 0.651 and the relative viability (Calu-6; first compound 0.08 µM) was 0.86. For the same compound, the relative viability (Calu-6; first compound 0.253 µM) was 0.882, the relative viability (Calu-6; first compound 0.8 µM) was 0.96 and the relative viability (Calu-6; first compound 2.53 µM) was 0.959. It also gave a relative viability (Calu-6; first compound 8 µM) of 0.871, a relative viability (EBC-1; first compound 0.08 µM) of 0.352 and a relative viability (EBC-1; first compound 0.253 µM) of 0.469. It also gave a relative viability (EBC-1; first compound 0.8 µM) of 0.342, a relative viability (EBC-1; first compound 2.53 µM) of 0.401 and a relative viability (EBC-1; first compound 8 µM) of 0.298. For the same compound, the relative viability (HCC-78; first compound 0.08 µM) was 0.182, the relative viability (HCC-78; first compound 0.253 µM) was 0.199 and the relative viability (HCC-78; first compound 0.8 µM) was 0.207. It also gave a relative viability (HCC-78; first compound 2.53 µM) of 0.196, a relative viability (HCC-78; first compound 8 µM) of 0.255 and a relative viability (IA-LM; first compound 0.08 µM) of 0.278. For the same compound, the relative viability (IA-LM; first compound 0.8 µM) was 0.328, the relative viability (IA-LM; first compound 2.53 µM) was 0.346 and the relative viability (IA-LM; first compound 8 µM) was 0.315. The relative viability (NCI-H1299; first compound 0.08 µM) was 0.679, the relative viability (NCI-H1299; first compound 0.253 µM) was 0.827 and the relative viability (NCI-H1299; first compound 0.8 µM) was 0.856. For the same compound, the relative viability (NCI-H1299; first compound 2.53 µM) was 0.763, the relative viability (NCI-H1299; first compound 8 µM) was 0.854 and the relative viability (NCI-H1703; first compound 0.253 µM) was 0.25. It also gave a relative viability (NCI-H1703; first compound 0.8 µM) of 0.279, a relative viability (NCI-H1703; first compound 2.53 µM) of 0.241 and a relative viability (NCI-H1703; first compound 8 µM) of 0.316. The relative viability (NCI-H2009; first compound 0.08 µM) was 0.813, the relative viability (NCI-H2009; first compound 0.253 µM) was 0.962 and the relative viability (NCI-H2009; first compound 0.8 µM) was 0.968. It also gave a relative viability (NCI-H2009; first compound 2.53 µM) of 0.728, a relative viability (NCI-H2009; first compound 8 µM) of 0.745 and a relative viability (NCI-H460; first compound 0.08 µM) of 0.289. For the same compound, the relative viability (NCI-H460; first compound 0.253 µM) was 0.452, the relative viability (NCI-H460; first compound 0.8 µM) was 0.321 and the relative viability (NCI-H460; first compound 2.53 µM) was 0.384. It also gave a relative viability (NCI-H460; first compound 8 µM) of 0.545, a relative viability (NCI-H661; first compound 0.08 µM) of 0.352 and a relative viability (NCI-H661; first compound 0.253 µM) of 0.394. The relative viability (NCI-H661; first compound 0.8 µM) was 0.404, the relative viability (NCI-H661; first compound 2.53 µM) was 0.35 and the relative viability (NCI-H661; first compound 8 µM) was 0.446.
